Test results published in patent US8946200B2, “Pharmaceutically active nanosuspensions” (Southwest Research Institute, priority 2006, dated 2015).

Assays:
[1] = Particle size distribution of the nanoparticle suspension (Beckman Coulter PCS Submicron Particle Size Analyzer); assay type: physicochemical; settings: suspension of TCO in PBS pH 7.4, 0.5 mg/mL (FIG. 1)
Experimental: The particle size of the pharmaceutically active compound in the nanosuspension may be in the range of 100 nm to 1000 nm, including all values and increments therein, such as in the range of 250 nm to 1,000 nm, etc. Illustrated in FIG. 1 is an exemplary embodiment of a numerical particle size distribution of suspension of TCO in PBS having a pH of 7.4 and at a concentration of 0.5 mg/mL. […] In addition, the highest relative number percent of particles fall in the range of about 450-525 nm. Such particle size determination may be accomplished on a Beckman Coulter PCS Submicron Particle Size Analyzer. Accordingly, a nanosuspension herein may be understood as any liquid medium containing pharmaceutically active compounds having particles with a size of less than or equal to about 1000 nm.
(§1) A solution of TCO (1 mg) in hexafluoroisopropanol (HFIP) (0.5 mL) was prepared and added slowly into a magnetically stirred into phosphate buffered saline (PBS) (2 mL) having a pH of 7.4. The mixture was stirred uncovered in a fume hood for up to 24 hours. FIG. 1 illustrates the particle size distribution of suspension of TCO in pH 7.4 PBS at 0.5 mg/mL concentration. […] The clear nanoparticle suspension was further concentrated in a vacuum oven to about 1.5 mg/mL.

[2] = Concentration of the nanosuspension and appearance / physical stability; assay type: physicochemical
Experimental: as §1
A solution of TCO (1 mg) in hexafluoroisopropanol (0.5 mL) was prepared and added slowly into a magnetically stirred deionized water (2 mL). The mixture was stirred uncovered in a fume hood for 3 hours and further concentrated in a vacuum oven. The nanoparticle suspension in deionized water, however, could only be concentrated to about 0.6 mg/mL of concentration before growing micron-sized crystals.

Substance: triamcinolone [TCO]
- particle size range with the highest relative number percent of particles [1]: 450-525 nm
- appearance of nanosuspension ([2]; 1.0 mg/ML, precipitating 2 mg/0.5 mL TCO/HFIP into 2 mL PBS): cloudy solution
- concentration to which the clear nanoparticle suspension was further concentrated ([2]; PBS pH 7.4, 1 mg TCO/0.5 mL HFIP into 2 mL PBS, vacuum oven): about 1.5 mg/mL
- concentration reached before growing micron-sized crystals ([2]; deionized water, 1 mg TCO/0.5 mL HFIP into 2 mL water, vacuum oven): about 0.6 mg/mL
